Data on eleven compounds can be found in US10670605B2, “Cysteine reactive probes and uses thereof” (The Scripps Research Institute, priority 2015, dated 2020).

Test [1] concerns the target T1, cysteines in MDA-MB-231 and Ramos cells (Homo sapiens, UniProt Q9NVC6).
T1 sequence (Q9NVC6 1-651): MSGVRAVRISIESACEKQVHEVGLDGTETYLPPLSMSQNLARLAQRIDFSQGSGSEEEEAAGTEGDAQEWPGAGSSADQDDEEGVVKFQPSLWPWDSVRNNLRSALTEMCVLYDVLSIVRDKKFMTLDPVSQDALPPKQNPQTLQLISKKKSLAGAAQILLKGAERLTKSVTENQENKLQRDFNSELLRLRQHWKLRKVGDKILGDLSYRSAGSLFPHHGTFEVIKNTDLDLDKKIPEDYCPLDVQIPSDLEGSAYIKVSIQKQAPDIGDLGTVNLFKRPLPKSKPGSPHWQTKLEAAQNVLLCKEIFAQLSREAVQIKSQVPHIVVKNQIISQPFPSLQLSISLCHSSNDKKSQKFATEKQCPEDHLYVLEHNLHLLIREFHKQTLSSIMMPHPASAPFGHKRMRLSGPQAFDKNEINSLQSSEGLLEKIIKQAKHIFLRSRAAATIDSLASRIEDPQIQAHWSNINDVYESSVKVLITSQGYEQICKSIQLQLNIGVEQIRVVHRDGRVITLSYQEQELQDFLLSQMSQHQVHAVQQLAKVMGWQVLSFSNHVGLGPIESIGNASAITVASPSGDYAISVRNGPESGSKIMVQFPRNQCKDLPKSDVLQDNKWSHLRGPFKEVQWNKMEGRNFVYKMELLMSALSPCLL
The experiment in a line: Competitive isoTOP-ABPP in situ (fragment-treated cells). In kind it is cell-based.
Description: (§1) Fragments 4 and 11 were screened at 100 μM in situ. […] Site-specific engagement of electrophilic fragments was assessed by blockade of IA-alkyne probe labeling. […] Ratios for unique peptide entries were calculated for each experiment; overlapping peptides with the same modified cysteine (e.g. different charge states, MudPIT chromatographic steps or tryptic termini) were grouped together and the median ratio was reported as the final ratio (R). The peptide ratios reported by CIMAGE were further filtered to ensure the removal or correction of low quality ratios in each individual dataset. […] R values were calculated and individual datasets were filtered as described above (R value calculation and processing).

For test [2], the target named is T2, cysteines in MDA-MB-231 and Ramos cells (Homo sapiens, UniProt Q9Y277).
T2 sequence (Q9Y277 1-283): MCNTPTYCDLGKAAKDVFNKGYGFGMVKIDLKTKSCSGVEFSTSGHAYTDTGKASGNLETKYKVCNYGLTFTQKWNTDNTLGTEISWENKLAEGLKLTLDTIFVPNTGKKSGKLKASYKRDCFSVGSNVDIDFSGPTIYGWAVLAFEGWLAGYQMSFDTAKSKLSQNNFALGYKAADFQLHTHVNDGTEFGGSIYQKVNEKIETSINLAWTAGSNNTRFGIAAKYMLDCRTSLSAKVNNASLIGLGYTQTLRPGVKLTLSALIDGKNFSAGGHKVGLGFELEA
The description is as above. Type of test: cell-based.
Description: as §1

Test [3] addresses T3, cysteines in MDA-MB-231 and Ramos cells (Homo sapiens, UniProt Q9BQ69).
T3 sequence (Q9BQ69 1-325): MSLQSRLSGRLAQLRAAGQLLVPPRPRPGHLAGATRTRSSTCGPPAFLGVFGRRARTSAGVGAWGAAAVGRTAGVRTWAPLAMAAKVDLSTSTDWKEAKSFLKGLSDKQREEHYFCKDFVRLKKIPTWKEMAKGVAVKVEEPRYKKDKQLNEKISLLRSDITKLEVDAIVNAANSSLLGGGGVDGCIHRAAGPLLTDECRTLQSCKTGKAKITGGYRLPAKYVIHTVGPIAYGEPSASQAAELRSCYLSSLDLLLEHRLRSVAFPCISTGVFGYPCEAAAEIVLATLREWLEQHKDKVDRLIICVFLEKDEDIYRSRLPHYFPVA
The test is described as above. In kind it is cell-based.
Description: as §1

In test [4] the target is T4, cysteines in MDA-MB-231 and Ramos cells (Homo sapiens, UniProt P42224).
T4 sequence (P42224 1-750): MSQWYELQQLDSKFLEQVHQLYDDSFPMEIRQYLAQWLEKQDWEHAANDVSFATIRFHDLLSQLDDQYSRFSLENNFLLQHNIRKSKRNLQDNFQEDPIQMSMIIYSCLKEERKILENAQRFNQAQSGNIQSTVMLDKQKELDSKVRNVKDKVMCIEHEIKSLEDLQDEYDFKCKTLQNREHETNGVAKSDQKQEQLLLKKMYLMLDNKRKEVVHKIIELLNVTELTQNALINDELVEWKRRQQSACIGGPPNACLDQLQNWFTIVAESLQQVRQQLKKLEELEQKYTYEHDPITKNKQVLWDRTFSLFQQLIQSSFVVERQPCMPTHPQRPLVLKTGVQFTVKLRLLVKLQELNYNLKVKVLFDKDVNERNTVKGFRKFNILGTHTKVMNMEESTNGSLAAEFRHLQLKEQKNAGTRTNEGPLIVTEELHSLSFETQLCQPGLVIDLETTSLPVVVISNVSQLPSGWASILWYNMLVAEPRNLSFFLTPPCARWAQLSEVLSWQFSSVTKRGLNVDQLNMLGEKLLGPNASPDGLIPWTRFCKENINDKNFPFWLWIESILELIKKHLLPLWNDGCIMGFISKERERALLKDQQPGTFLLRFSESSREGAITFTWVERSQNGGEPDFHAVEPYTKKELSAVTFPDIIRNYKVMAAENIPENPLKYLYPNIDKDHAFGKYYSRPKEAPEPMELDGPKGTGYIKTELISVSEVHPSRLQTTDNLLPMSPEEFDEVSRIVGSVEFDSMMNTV
The description is as above. Type of test: cell-based.
Description: as §1

The target in test [5] is T5, cysteines in MDA-MB-231 and Ramos cells (Homo sapiens, UniProt P57764).
T5 sequence (P57764 1-484): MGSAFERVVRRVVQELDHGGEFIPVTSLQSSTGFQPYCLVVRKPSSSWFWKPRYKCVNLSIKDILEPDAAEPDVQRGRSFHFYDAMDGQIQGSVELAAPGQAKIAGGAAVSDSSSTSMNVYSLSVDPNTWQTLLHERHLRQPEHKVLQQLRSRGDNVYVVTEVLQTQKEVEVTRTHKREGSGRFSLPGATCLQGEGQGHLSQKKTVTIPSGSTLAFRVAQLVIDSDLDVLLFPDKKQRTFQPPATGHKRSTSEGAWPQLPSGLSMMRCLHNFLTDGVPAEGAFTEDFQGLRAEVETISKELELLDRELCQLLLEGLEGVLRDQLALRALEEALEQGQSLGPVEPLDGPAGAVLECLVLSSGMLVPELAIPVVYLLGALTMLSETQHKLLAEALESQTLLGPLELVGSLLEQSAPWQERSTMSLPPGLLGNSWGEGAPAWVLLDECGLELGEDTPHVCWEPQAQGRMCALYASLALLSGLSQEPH
Described as above. Type of test: cell-based.
Description: as §1

The next test addresses O114933_C98 (Homo sapiens, UniProt O14933). The experiment in a line: Competitive isoTOP-ABPP, cell lysates. Type of test: binding. As to conditions: 500 μm.

Chain of O114933_C98 (O14933 whole entry): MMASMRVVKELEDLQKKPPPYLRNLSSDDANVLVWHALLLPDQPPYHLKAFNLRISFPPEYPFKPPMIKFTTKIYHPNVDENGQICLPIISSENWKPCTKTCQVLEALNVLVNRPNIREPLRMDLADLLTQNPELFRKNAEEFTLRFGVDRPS

For `O=C(CCl)NC12CC3CC(CC(C3)C1)C2` [compound 21], the “isoTOP-ABPP ratio Q9NVC6_C649” value in test [1] (200 μM, insitu, 231) came to 0.8. The “isoTOP-ABPP ratio Q9Y277_C65” value in test [2] (200 μM, insitu, 231) was 2.9. Further, the “isoTOP-ABPP ratio Q9BQ69_C186” value in test [3] (200 μM, insitu, 231) was found to be 1.4. In addition, the “isoTOP-ABPP ratio P42224_C492” value in test [4] (200 μM, insitu, 231) is recorded as 0.7. The “isoTOP-ABPP ratio P57764_C268” value in test [5] (200 μM, insitu, 231) turned out to be 0.7.

On to `O=C(CCl)N(Cc1ccc(F)cc1)C12CC3CC(CC(C3)C1)C2` [compound 34], for which, on O114933_C98 (in-vitro_ramos_231), the “isoTOP-ABPP reactivity ratio, O114933_C98” value (shortened to “isoTOP-ABPP reactivity ratio”) is 0.8.

Regarding `COc1ccc2c(c1)CCCN2C(=O)CCl` [compound 2], the “isoTOP-ABPP reactivity Q9NVC6_C649 MED17” value in test [1] (200 μM, insitu, 231) amounted to 7.7. In addition, the “isoTOP-ABPP reactivity Q9Y277_C65 VDAC3” value in test [2] (200 μM, insitu, 231) is 3.3. Further, in test [3] (200 μM, insitu, 231), the “isoTOP-ABPP reactivity Q9BQ69_C186 MACROD1” value was found to be 4.8. The “isoTOP-ABPP reactivity P42224_C492 STAT1” value in test [4] (200 μM, insitu, 231) stood at 16.9. For the same compound, in test [5] (200 μM, insitu, 231), the “isoTOP-ABPP reactivity P57764_C268 GSDMD” value turned out to be 20.0.

In the case of `Cn1cc(S(=O)(=O)N2CCOCC2)cc1C(=O)NC(=O)CCl` [compound 11], the “isoTOP-ABPP ratio Q9NVC6_C649” value in test [1] (100 μM in situ 231) is on record as 0.8. In addition, the “isoTOP-ABPP ratio Q9Y277_C65” value in test [2] (100 μM in situ 231) is given as 1.4. Moreover, the “isoTOP-ABPP ratio Q9BQ69_C186” value in test [3] (100 μM in situ 231) came to 1.0. Also, the “isoTOP-ABPP ratio P42224_C492” value in test [4] (100 μM in situ 231) amounted to 0.7. Besides, the “isoTOP-ABPP ratio P57764_C268” value in test [5] (100 μM in situ 231) amounted to 0.7.

For `COc1ccccc1OCCNC(=O)CCl` [compound 28], the “isoTOP-ABPP ratio Q9NVC6_C649” value in test [1] (200 μM, insitu, 231) worked out at 1.1. Besides, the “isoTOP-ABPP ratio Q9Y277_C65” value in test [2] (200 μM, insitu, 231) is reported as 1.2. Besides, in test [4] (200 μM, insitu, 231), the “isoTOP-ABPP ratio P42224_C492” value came out at 0.8.

Regarding `O=C(CCl)NCCc1c[nH]c2ccccc12` [compound 13], the “isoTOP-ABPP ratio Q9NVC6_C649” value is 1.1 in test [1] (200 μM, insitu, 231) and 1.0 in test [1] (200 μM, insitu, ramos). For the same compound, the “isoTOP-ABPP ratio Q9Y277_C65” value in test [2] (200 μM, insitu, 231) is listed as 1.0. Further, the “isoTOP-ABPP ratio Q9BQ69_C186” value in test [3] (200 μM, insitu, 231) is recorded as 1.4. Moreover, the “isoTOP-ABPP ratio P42224_C492” value in test [4] (200 μM, insitu, 231) came out at 1.0. Moreover, the “isoTOP-ABPP ratio P57764_C268” value in test [5] (200 μM, insitu, ramos) came out at 1.5.

On to `Cc1ccc(C=C(C#N)C(=O)NCCN2CCOCC2)cc1` [compound 41], for which the “isoTOP-ABPP reactivity ratio” value on O114933_C98 (in-vitro_ramos) is reported as 1.1; at O114933_C98 (in-vitro_ramos_231) it was 1.2. Besides, the “isoTOP-ABPP ratio Q9NVC6_C649” value in test [1] (200 μM, insitu, 231) worked out at 0.8. In addition, the “isoTOP-ABPP ratio Q9Y277_C65” value in test [2] (200 μM, insitu, 231) was 1.4. Besides, the “isoTOP-ABPP ratio Q9BQ69_C186” value in test [3] (200 μM, insitu, 231) is listed as 1.2. Moreover, the “isoTOP-ABPP ratio P42224_C492” value in test [4] (200 μM, insitu, 231) was determined as 0.6. In addition, in test [5] (200 μM, insitu, 231), the “isoTOP-ABPP ratio P57764_C268” value is recorded as 0.6.

Regarding `CC(C)(C)c1cc(NC(=O)CCl)on1` [compound 32], the results for the “isoTOP-ABPP reactivity ratio” value at O114933_C98 (in-vitro_ramos) and on O114933_C98 (in-vitro_ramos_231) were 4.6 and 13.8, respectively.

With `C=CC(=O)Nc1cc(F)c(N2CCN(C(=O)OC(C)(C)C)CC2)c(F)c1` [compound 38], the figures for the “isoTOP-ABPP reactivity ratio” value at O114933_C98 (in-vitro_ramos) and at O114933_C98 (in-vitro_ramos_231) were 1.7 and 1.6, respectively. The “isoTOP-ABPP ratio Q9NVC6_C649” value in test [1] (200 μM, insitu, 231) amounted to 1.2. Besides, in test [2] (200 μM, insitu, 231), the “isoTOP-ABPP ratio Q9Y277_C65” value is recorded as 20.0. Also, the “isoTOP-ABPP ratio Q9BQ69_C186” value in test [3] (200 μM, insitu, 231) came out at 3.6. Also, the “isoTOP-ABPP ratio P57764_C268” value in test [5] (200 μM, insitu, 231) is 1.8.

As for `C=CC(=O)N(Cc1cccnc1)c1cc(C(F)(F)F)cc(C(F)(F)F)c1` [compound 31], the “isoTOP-ABPP ratio Q9NVC6_C649” value in test [1] (200 μM, insitu, 231) was determined as 0.8. Moreover, in test [2] (200 μM, insitu, ramos), the “isoTOP-ABPP ratio Q9Y277_C65” value is 1.0. Further, the “isoTOP-ABPP ratio Q9BQ69_C186” value in test [3] (200 μM, insitu, 231) was found to be 0.5. In addition, the “isoTOP-ABPP ratio P42224_C492” value in test [4] (200 μM, insitu, 231) is reported as 0.8; in test [4] (200 μM, insitu, ramos) it was 1.9. Besides, the “isoTOP-ABPP ratio P57764_C268” value in test [5] (200 μM, insitu, ramos) is given as 3.1.

As to `COc1cc2c(cc1OC)CN(C(=O)CCl)CC2` [compound 8], the “isoTOP-ABPP reactivity Q9NVC6_C649 MED17” value in test [1] (200 μM, insitu, 231) was determined as 3.2. Besides, the “isoTOP-ABPP reactivity Q9BQ69_C186 MACROD1” value in test [3] (200 μM, insitu, 231) was determined as 5.0. For the same compound, the “isoTOP-ABPP reactivity P57764_C268 GSDMD” value in test [5] (200 μM, insitu, 231) was 8.4.
